# Columns and labels:
# Type in all cases: in vivo
# [1] = system: green peach aphid (Myzus persicae); assay: Myzus test (spray treatment), Chinese cabbage leaf sections; details: for pest or weed control at 500 g/ha: Myzus persicae, 120 h, after 5 d, read-out: Death rate in % after 5 d; for activity after 5 days: 500 g/ha
# Protocol: (§1) To prepare a suitable active compound preparation 1 part by weight of the active compound is mixed with the given amount of solvent and emulsifier and the concentrate is diluted to the desired concentration with water containing emulsifier.
# Chinese cabbage leaf sections (Brassica pekinensis) infested with all stages of the green peach aphid (Myzus persicae) are sprayed with an active compound preparation at the desired concentration.
# After the desired time the activity in % is determined. Here 100% means that all aphids were killed; 0% means that no aphids were killed.
# [2] = system: cotton aphid (Aphis gossypii); assay: Aphis gossypii test, immersion of cotton leaves; details: 100 g/ha (so in the source), cotton leaves immersed
# Protocol: as §1
# Cotton plant leaves (Gossypium hirsutum) heavily infected with the cotton aphid (Aphis gossypii) are treated by immersing in the active compound preparation at the desired concentration. After the desired time the death rate in % is determined. Here 100% means that all aphids were killed; 0% means that no aphids were killed.
# [3] = system: rice brown plant hopper (Nilaparvata lugens); assay: Nilaparvata lugens test; hydroponic treatment (NILALU SYS); details: 500 g/ha
# Protocol: To prepare a suitable active compound preparation I part by weight of the active compound is mixed with the given amount of solvent and emulsifier and the concentrate is diluted to the desired concentration with water containing emulsifier.
# The active compound preparation is pipetted into water. […] Infection is then carried out with rice brown plant hopper (Nilaparvata lugens).
# After the desired time the activity in % is determined. Here 100% means that all plant hoppers were killed; 0% means that no plant hoppers were killed.
# [4] = system: Lucilia cuprina larvae; assay: Fly larvae test; details: 100 ppm
# Protocol: 10 mg active compound were dissolved in 0.5 ml dimethylsulphoxide. To prepare a suitable formulation the active compound solution is diluted with water to the respective desired concentration.
# About 20 Lucilia cuprina larvae are placed in a test tube that contains ca. 1 cm^3 horse flesh and 0.5 ml of the active compound preparation under test.
# After the desired time the death rate in % is determined. Here 100% means that all larvae were killed; 0% means that no larvae were killed.
# [5] = system: caterpillars of the fall army worm (Spodoptera frugiperda); assay: Spodoptera frugiperda test (spray treatment); details: 500 g/ha
# Protocol: as §1
# Maize leaf sections (Zea mays) are sprayed with an active compound preparation at the desired concentration and after drying treated with caterpillars of the fall army worm (Spodoptera frugiperda).
# After the desired time the activity in % is determined. Here 100% means that all caterpillars were killed; 0% means that no caterpillars were killed.
# [6] = system: eggs of the cotton boll worm (Heliotis virescens); assay: Heliothis virescens test (spray treatment); details: 500 g/ha, spray on soy bean leaves
# Protocol: as §1
# Soy bean leaves (Glycine max.) are sprayed with an active compound preparation at the desired concentration and after drying were infected with eggs of the cotton boll worm (Heliotis virescens).
# After the desired time the activity in % is determined. Here 100% means that all eggs were killed; 0% means that no eggs were killed.
# [7] = system: green peach aphid (Myzus persicae); assay: Myzus persicae test (hydroponic treatment); details: pea plant; for activity after 7 days: 20 ppm
# Protocol: To prepare a suitable active compound preparation 1 part by weight of the active compound is mixed with the given amount of solvent and emulsifier and the concentrate is diluted to the desired concentration with water.
# The active compound preparation is mixed with water. The concentration given refers to the amount of active compound per unit volume water (mg/l=ppm). The treated water is placed into a vessel with one pea plant (Pisum sativum). After the prescribed time infection with the green peach aphid (Myzus persicae) is carried out.
# After the desired time the death rate in % is determined. Here 100% means that all aphids were killed; 0% means that no aphids were killed.
# [8] = system: eggs of the diamond back moth (Plutella xylostella); assay: Plutella test, artificial diet; details: 1000 g/ha (so in the source), on artificial diet
# Protocol: To prepare a suitable active compound preparation 1 part by weight active compound was mixed with the given amount of solvent and the concentrate was diluted to the desired concentration with methanol.
# A given amount of active compound preparation at the desired concentration is pipetted onto a standardised amount of artificial diet. After the methanol has evaporated ca. 200-300 eggs of the diamond back moth (Plutella xylostella) are added to the diet.
# After the desired time the death rate of the eggs and larvae, respectively, in % is determined. Here 100% means that all animals were killed; 0% means that no animals were killed.
# [9] = system: adult engorged females of Boophilus microplus (strain Parkhurst-SP resistant); assay: Test with resistant monoxenous cattle ticks/SP-resistant Parkhurst strain, injection method; details: 20 μg/animal injected into the abdomen
# Protocol: 10 mg of the active compound are dissolved in 0.5 ml dimethylsulphoxide, lower concentrations are prepared by dilution with the same solvent.
# The test is carried out five times. 1 μl is injected into the abdomen, the animals are transferred into dishes and stored in an air-conditioned room. The control of activity is carried out on a deposit of fertile eggs after 7 days. Eggs, the fertility of which was not visible externally, were stored in glass tubes in an incubator until larvae hatch after about 24 days. An activity of 100% means that no ticks laid fertile eggs.
# [10] = system: larvae of the mustard leaf beetle (Phaedon cochleariae); assay: Phaedon cochleariae test (spray treatment); details: 500 g/ha
# Protocol: [table] To prepare a suitable active compound preparation 1 part by weight of the active compound is mixed with the given amount of solvent and emulsifier and the concentrate is diluted to the desired concentration with water containing emulsifier. Chinese cabbage leaf sections (Brassica pekinensis) are sprayed with an active compound preparation at the desired concentration and after drying are infected with larvae of the mustard leaf beetle (Phaedon cochleariae). After the desired time the activity in % is determined.
compound,measurement,setting,value
CC1OC(=O)C=C1N(C)Cc1ccc(Cl)nc1 (stereo not drawn),pest or weed control at 500 g/ha,[1],100%
CN(Cc1ccc(Cl)nc1)C1=CC(=O)CCC1,pest or weed control at 500 g/ha,[1],90%
O=C1C=C(N(Cc2ccc(Cl)nc2)C2CC2)CC1,pest or weed control at 500 g/ha,[1],100%
CN(Cc1ccc(Cl)cn1)C1=CC(=O)CC1,Death rate in % after 6 d,[2],95%
O=C1C=C(NCc2ccc(Cl)nc2)CCC1 [Compound 1],activity after 5 days,[1],100%
same,activity after 7 days,[3],100%
CCCN(Cc1ccc(Cl)nc1)C1=CC(=O)CCC1 [Compound 4],activity after 5 days,[1],100%
C=CCN(Cc1ccc(Cl)nc1)C1=CC(=O)CCC1 [Compound 9],activity after 5 days,[1],100%
C#CCN(Cc1ccc(Cl)nc1)C1=CC(=O)CCC1 [Compound 10],activity after 5 days,[1],100%
Cn1c(NCc2ccc(Cl)nc2)cc(=O)n(C)c1=O [Compound 70],activity after 5 days,[1],100%
CCN(Cc1ccc(Cl)nc1)C1=CC(=O)OC1 [Compound 85],death rate after 2 days,[4],100%
same,Death rate in % after 7 d,"[5]; spray on maize leaf sections, after 7 d",100%
same,Death rate in % after 7 d,[6],100%
C=CCN(Cc1ccc(Cl)nc1)C1=CC(=O)OC1 [Compound 91],Death rate in % after 7 d,"[7]; 20 g/ha (so in the source), after 7 d",100%
C#CCN(Cc1ccc(Cl)nc1)C1=CC(=O)OC1 [Compound 92],activity after 5 days,[1],100%
CC(=O)N(Cc1ccc(Cl)nc1)C1=CC(=O)OC1 [Compound 94],activity after 5 days,[1],100%
CON(Cc1ccc(Cl)nc1)C1=CC(=O)OC1 [Compound 98],activity after 5 days,[1],100%
same,death rate after 2 days,[4],100%
same,activity after 7 days,[7],100%
CN(Cc1ccc(Cl)nc1)C1=C(F)C(=O)OC1 [Compound 104],death rate after 2 days,[4],100%
CN(Cc1ccc(Cl)nc1)C1=CC(=O)SC1 [Compound 112],Death rate in % after 7 d,[8],100%
CN(Cc1ccc(Br)nc1)C1=CC(=O)OC1 [Compound 121],activity after 5 days,[1],100%
same,activity (no fertile eggs laid),[9],95%
same,death rate after 2 days,[4],100%
same,activity after 7 days,[7],100%
same,activity after 7 days,"[5]; spray, after 7 days",100%
O=C1C=C(N(Cc2ccc(F)nc2)C2CC2)CO1 [Compound 124],activity after 5 days,[1],100%
CN(Cc1ccc(C(F)(F)F)nc1)C1=CC(=O)OC1 [Compound 125],activity after 5 days,[1],100%
same,activity (no fertile eggs laid),[9],80%
same,death rate after 2 days,[4],90%
same,activity after 7 days,[7],100%
O=C1C=C(N(Cc2ccc(C(F)(F)F)nc2)C2CC2)CO1 [Compound 126],activity after 5 days,[1],100%
CN(Cc1cnc(Cl)s1)C1=CC(=O)OC1 [Compound 144],Death rate in % after 7 d,[6],99%
CN(Cc1cccnc1)C1=CC(=O)OC1 [Compound 147],activity after 5 days,[1],100%
CN(Cc1ccc(Cl)nc1)C1=CC(=O)CC1 [Compound 175],death rate after 2 days,[4],100%
CN(Cc1ccc(Cl)nc1)C1=CC(=O)OC1 [drawing 472],pest or weed control at 500 g/ha,[1],100%
CCN(Cc1ccc(Cl)nc1)C1=CC(=O)OC1 [drawing 473],pest or weed control at 500 g/ha,[1],90%
CN(Cc1cnc(Cl)s1)C1=CC(=O)OC1 [drawing 474],pest or weed control at 500 g/ha,[1],100%
O=C1C=C(NCc2ccc(Cl)nc2)CO1 [drawing 475],pest or weed control at 500 g/ha,[1],90%
CN(Cc1ccc(Cl)nc1)C1=C(F)C(=O)OC1 [drawing 477],pest or weed control at 500 g/ha,[1],100%
O=C1C=C(N(Cc2ccc(Cl)nc2)C2CC2)CO1 [drawing 478],pest or weed control at 500 g/ha,[1],100%
C=CCN(Cc1ccc(Cl)nc1)C1=CC(=O)OC1 [drawing 479],pest or weed control at 500 g/ha,[1],100%
CN(Cc1ccc(Cl)nc1)C1=CC(=O)CC1 [drawing 481],pest or weed control at 500 g/ha,[1],100%
CN(Cc1ccc(Cl)nc1)C1=CC(=O)SC1 [drawing 483],pest or weed control at 500 g/ha,[1],80%
CN(Cc1ccc(Cl)nc1)C1=CC(=O)OC1 [drawing 484],Death rate in % after 7 d,[10],100%
CCN(Cc1ccc(Cl)nc1)C1=CC(=O)OC1 [drawing 485],Death rate in % after 7 d,[10],100%
O=C1C=C(N(Cc2ccc(Cl)nc2)C2CC2)CO1 [drawing 486],Death rate in % after 7 d,[10],100%
C=CCN(Cc1ccc(Cl)nc1)C1=CC(=O)OC1 [drawing 487],Death rate in % after 7 d,[10],67%
CN(Cc1ccc(Cl)nc1)C1=CC(=O)OC1 [drawing 493],Death rate in % after 6 d,[2],100%
O=C1C=C(NCc2ccc(Cl)nc2)CO1 [drawing 494],Death rate in % after 6 d,[2],98%
C=CCN(Cc1ccc(Cl)nc1)C1=CC(=O)OC1 [drawing 495],Death rate in % after 6 d,[2],95%
